Bridge positions count the residues as written; N and C are the ends. Peptide text beside a SMILES is read from it.
Experiments:
[1] = tested on: abdominal response to colorectal distension; test: TNBS visceral hypersensitivity rat model (colorectal distension, EMG); assay type: in vivo, Wistar rats; details: 0.3 μg/kg and 3 μg/kg; given one hour before CRD
Method: Male Wistar rats (220-250 g) were premedicated with 0.5 mg/kg of acepromazine injected intraperitoneally (IP) and anesthetized by intramuscular administration of 100 mg/kg of ketamine. Pairs of nichrome wire electrodes (60 cm in length and 80 μm in diameter) were implanted in the striated muscle of the abdomen, 2 cm laterally from the white line. The free ends of electrodes were exteriorized on the back of the neck and protected by a plastic tube attached to the skin. Electromyographic (EMG) recordings were started 5 days after surgery. Electrical activity of abdominal striated muscle was recorded with an electroencephalograph machine (Mini VIII, Alvar, Paris, France) using a short time constant (0.03 sec.) to remove low-frequency signals (<3 Hz).
Ten days post surgical implantation, trinitrobenzenesulphonic acid ([…]) was administered to induce rectal inflammation. TNBS (80 mg kg^−1 in 0.3 ml 50% ethanol) was administered intrarectally through a silicone rubber catheter introduced at 3 cm from the anus under light diethyl-ether anesthesia, as described (Morteau et al. 1994 Dig Dis Sci 39:1239). […] Evaluation of rectal sensitivity, as measured by EMG, was performed before (1-2 days) and 3 days following rectal instillation of TNBS.
The number of spike bursts that corresponds to abdominal contractions was determined per 5 min periods. […]

[2] = tested on: response to colorectal distension; test: partial restraint stress-induced hyperalgesia model; assay type: in vivo, Wistar rats; details: oral 0.3 and 3.0 μg/kg; distending pressure 15 mm Hg; p<0.0001
Method: Five groups of female Wistar rats (weighing 200-250 g each), were surgically prepared for electromyography as described (Morteau et al. 1994 Dig Dis Sci 39:1239-48) and were used to evaluate the effects of SEQ ID NO:3 on colorectal sensitivity and compliance after a 2 hour partial restraint stress session. Partial restraint stress (PRS), a relatively mild stress, was induced as previously described (Morteau et al., 1994 Dig Dis Sci 39:1239-48). Female rats were lightly anesthetized with diethyl ether and their shoulders, upper forelimbs and thoracic trunk were wrapped in a confining harness of paper tape to restrict, but not prevent body movements. Control sham-stress animals were anesthitized but not wrapped. […] Electrical activity was recorded with an electroencephalograph (Mini VIII, Alvar, Paris, France) using a short time constant (0.03 sec.) to remove low-frequency signals (<3 Hz) and a paper speed of 3.6 cm/minute. […] Colonic pressure and balloon volume were continuously monitored on a potentiometric recorder (L6514, Linseis, Selb, Germany) with a paper speed of 1.0 cm/minute. The number of spike bursts, corresponding to abdominal contractions, was evaluated per 5-minute period. Colorectal volumes were determined as the maximal volume obtained for each stage of distension using the potentiometric recorder. […] The values were expressed as mean±SEM.

bowel habits = test: single oral dose study of bowel habits in humans; assay type: in vivo
Method: Single doses of 30, 100, 300, 1000 or 3000 μg of chemically synthesized SEQ ID NO:3 were given to 30 healthy males and postmenopausal females. At each dose level (100 μg was done twice) SEQ ID NO:3 or placebo (vehicle) was administered orally in 5.0 mL 50 mM phosphate buffer (pH 6.0) plus 3×20 mL water rinses and 175 mL water after at least a 10-hour fast. In each dosing group, subjects were randomized to receive either placebo (1 subject) or SEQ ID NO:3 (3-4 subjects). Bowel habits (including Bristol Stool Form Scale score (BSFS; FIG. 14a), stool frequency, and stool weight) were evaluated for each collected bowel movement 48 hours prior to dose and up to approximately 48 hours postdose.

## C[C@@H]1NC(=O)[C@@H]2CCCN2C(=O)[C@H](CC(N)=O)NC(=O)[C@@H]2CSSC[C@H](N)C(=O)N[C@H]3CSSC[C@H](NC1=O)C(=O)N[C@@H]([C@@H](C)O)C(=O)NCC(=O)N[C@H](C(=O)N[C@@H](Cc1ccc(O)cc1)C(=O)O)CSSC[C@H](NC(=O)[C@H](Cc1ccc(O)cc1)NC(=O)[C@H](CCC(=O)O)NC3=O)C(=O)N2 [SEQ ID NO:3] (H-CCEYCCNPACTGCY-OH; disulfide 1-6, 2-10, 5-13; N-terminus and C-terminus assumed)
[1]
  abdominal response to colorectal distension after TNBS: Significant decreases in abdominal response
[2]
  response to CRD after partial restraint stress: reduced the response to CRD
Bowel habits; 1000 μg dose group, mean pre-dose compared to peak 48 hours post-dose
  percent of subjects with a 2-point or greater increase in BSFS score: highest percent of subjects
Bowel habits; single oral dose 30-3000 μg
  BSFS post-dose scores, relation to dose: Higher BSFS post-dose scores correlated with a higher dose
Bowel habits; single oral dose 30-3000 μg, healthy males and postmenopausal females
  maximum BSFS (Bristol Stool Form Scale) score: increase in maximum BSFS score
